# Laboratory results from patent publication US20170136031A1, “PLATINUM COMPLEXES AS ANTICANCER AGENTS” (KING FAHD UNIVERSITY OF PETROLEUM AND MINERALS, priority 2014, published 2017).
# pIC50: −log10 of the molar value.
# How the values were obtained:
# Type in all cases: cell-based
# [1] = test system: A549 (human lung carcinoma) cell line; assay: In vitro cytotoxicity against A549 cell line; details: from curves of complex concentration vs percentage viability
# [2] = test system: HeLa (human cervical cancer) cell line; assay: In vitro cytotoxicity against HeLa cell line; details: read-out: IC50 values against HeLa cell line (unit inferred)
# [3] = test system: HCT15 (human colon adenocarcinoma) cell line; assay: In vitro cytotoxicity against HCT15 cell line; details: from curves of complex concentration vs percentage viability
# [4] = test system: MCF7 (human breast cancer) cell line; assay: In vitro cytotoxicity against MCF7 cell line; details: from curves of complex concentration vs percentage viability
compound,measurement,setting,value
"N.N.[Cl][Pt][Cl] [Cisplatin, cisplatin]",pIC50,[1],4.38
same,pIC50,[2],4.71
same,pIC50,[3],4.53
same,pIC50,[4],4.65
